Data from patent US7037656B2, “Methods and compositions for identifying ligands for nuclear receptors” (priority 2000, dated 2006).

Tests used:
[1] = target: T1, Aa AB EcR/Aa USPa and SMRT (Aedes aegypti, UniProt P49880); assay: Yeast 6x EcRE-lacZ reporter assay with SMRT (ligand-dependent down regulation); assay type: cell-based; details: 10 μM; Aa AB EcR/Aa USPa co-expressed with SMRT, constitutive reporter expression without ligand (FIG. 10A)
T1 construct: human ubiquitin (76 aa) (N, cleaved yes); expressed in transfected cells; host or cells: yeast (Saccharomyces cerevisiae)
T1 sequence (P49880 with tags, fused parts or gaps): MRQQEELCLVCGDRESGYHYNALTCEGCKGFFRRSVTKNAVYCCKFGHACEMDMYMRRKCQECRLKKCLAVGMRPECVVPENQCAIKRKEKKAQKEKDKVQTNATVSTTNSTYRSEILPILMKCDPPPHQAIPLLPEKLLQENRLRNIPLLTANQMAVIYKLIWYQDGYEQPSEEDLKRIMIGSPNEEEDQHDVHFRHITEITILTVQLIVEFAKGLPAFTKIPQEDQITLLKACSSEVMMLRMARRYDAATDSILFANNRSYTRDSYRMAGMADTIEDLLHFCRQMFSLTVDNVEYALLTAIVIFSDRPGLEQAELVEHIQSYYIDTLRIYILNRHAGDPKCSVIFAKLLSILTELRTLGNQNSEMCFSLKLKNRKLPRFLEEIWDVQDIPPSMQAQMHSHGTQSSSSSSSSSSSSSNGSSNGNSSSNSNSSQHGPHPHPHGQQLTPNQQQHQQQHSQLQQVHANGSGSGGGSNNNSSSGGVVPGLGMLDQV
From the text: FIGS. 10A and 10B are graphs showing the roles of the coactivators and co-repressors in transactivation of AaΔEcR. Interaction of different transcriptional factors in combination with the heterodimers AaΔEcR/USPa or AaΔEcR/USPb (FIG. 10A). […] The yeast strains carrying the reporter plasmid which contains 6 EcRE response elements coupled with E. coli β gal gene in combination with the presence of different plasmids for expression of different USPs, AaΔEcR and coactivators/repressors. The final concentration of all ecdysteroid analogues was 10 μM. The data are presented as a median set of at least 8 independent experiments plus SD.
Briefly, yeast cells are cultured in 5 mL of YPD liquid medium overnight at 30° C. The cell culture was diluted 1:20 in YPD media and further grown until cell density reached an O.D of 0.6. at OD600. The cells were pelleted by centrifugation and washed with 10 mL of TE+0.1M lithium acetate. Cells are then resuspended in 10 mL TE+0.1M lithium acetate and incubated at 30° C. for 1 hour. Cells are collected and resuspended in 0.5 mL of TE+ 0.1M lithium acetate. Aliquots of cells (50 μL), were incubated for 15 minutes at 30° C. with 1–2 μg plasmid DNA in the presence of 5 μg of denatured salmon sperm DNA as DNA carrier. In the case of co-transformation, the indicated plasmids were added simultaneously. […]

[2] = target: T2, Dm ΔN EcR + RXRγ + GRIP1 (Drosophila melanogaster, UniProt P34021); assay: Yeast 6x EcRE-lacZ β-galactosidase transactivation assay; assay type: cell-based, Drosophila melanogaster; mouse; details: RH 5992 10 μM, 4 hours, DMSO control 0.364
T2 construct: ubiquitin (human, 76 aa) (N, cleaved yes); expressed in transfected cells
T2 sequence (P34021 221-878 limits assumed, stated change not applied): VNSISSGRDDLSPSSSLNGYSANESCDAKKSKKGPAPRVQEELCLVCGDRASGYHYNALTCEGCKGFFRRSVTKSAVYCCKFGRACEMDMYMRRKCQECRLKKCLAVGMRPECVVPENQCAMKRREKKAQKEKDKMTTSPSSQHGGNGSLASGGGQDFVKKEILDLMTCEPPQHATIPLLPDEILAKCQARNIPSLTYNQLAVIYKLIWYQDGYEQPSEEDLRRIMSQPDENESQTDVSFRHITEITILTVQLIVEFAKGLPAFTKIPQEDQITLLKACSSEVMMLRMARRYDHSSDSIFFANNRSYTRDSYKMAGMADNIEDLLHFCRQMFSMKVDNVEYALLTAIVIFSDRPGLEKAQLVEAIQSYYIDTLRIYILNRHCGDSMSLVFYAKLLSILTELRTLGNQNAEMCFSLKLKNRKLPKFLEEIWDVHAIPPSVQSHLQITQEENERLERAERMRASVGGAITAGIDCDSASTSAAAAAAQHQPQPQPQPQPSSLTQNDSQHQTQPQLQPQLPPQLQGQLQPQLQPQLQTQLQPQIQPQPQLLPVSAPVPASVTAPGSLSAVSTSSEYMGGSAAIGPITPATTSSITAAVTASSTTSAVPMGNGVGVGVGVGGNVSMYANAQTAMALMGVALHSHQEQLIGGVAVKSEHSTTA
T2 sequence (P28705 whole entry partner): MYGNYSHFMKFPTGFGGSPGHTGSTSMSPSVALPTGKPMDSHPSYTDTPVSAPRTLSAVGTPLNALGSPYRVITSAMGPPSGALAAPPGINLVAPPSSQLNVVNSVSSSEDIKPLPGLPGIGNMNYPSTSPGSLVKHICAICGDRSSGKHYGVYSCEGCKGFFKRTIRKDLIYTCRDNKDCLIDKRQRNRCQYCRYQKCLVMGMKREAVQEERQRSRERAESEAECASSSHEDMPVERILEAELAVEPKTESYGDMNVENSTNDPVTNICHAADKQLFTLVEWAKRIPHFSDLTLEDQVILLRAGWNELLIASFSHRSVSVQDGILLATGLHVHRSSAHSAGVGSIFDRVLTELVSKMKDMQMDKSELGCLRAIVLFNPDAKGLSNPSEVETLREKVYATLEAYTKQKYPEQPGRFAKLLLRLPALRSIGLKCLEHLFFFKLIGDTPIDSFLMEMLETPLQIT
T2 sequence (Q61026 322-1121 partner limits assumed): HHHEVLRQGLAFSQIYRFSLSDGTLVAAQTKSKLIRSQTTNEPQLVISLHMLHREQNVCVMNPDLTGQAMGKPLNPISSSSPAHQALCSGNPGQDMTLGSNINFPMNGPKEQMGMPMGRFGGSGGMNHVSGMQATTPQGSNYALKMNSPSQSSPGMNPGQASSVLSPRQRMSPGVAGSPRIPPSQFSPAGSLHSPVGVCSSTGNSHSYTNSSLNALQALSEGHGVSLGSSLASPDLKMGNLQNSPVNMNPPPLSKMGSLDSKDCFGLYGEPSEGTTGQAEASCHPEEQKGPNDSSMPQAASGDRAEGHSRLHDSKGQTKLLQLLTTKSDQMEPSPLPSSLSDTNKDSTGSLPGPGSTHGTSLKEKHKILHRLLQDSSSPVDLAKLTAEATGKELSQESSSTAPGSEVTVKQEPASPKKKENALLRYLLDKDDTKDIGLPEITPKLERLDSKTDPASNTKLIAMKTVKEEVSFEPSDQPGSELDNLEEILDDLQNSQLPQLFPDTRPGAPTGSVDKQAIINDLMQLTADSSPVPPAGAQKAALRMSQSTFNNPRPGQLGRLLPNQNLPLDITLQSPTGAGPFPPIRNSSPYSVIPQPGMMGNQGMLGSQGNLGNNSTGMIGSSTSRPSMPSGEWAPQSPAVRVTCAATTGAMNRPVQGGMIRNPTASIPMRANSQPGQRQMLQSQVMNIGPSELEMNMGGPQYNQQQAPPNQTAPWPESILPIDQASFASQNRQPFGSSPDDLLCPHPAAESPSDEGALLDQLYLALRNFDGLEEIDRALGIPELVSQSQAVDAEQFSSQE
Experimental: The human RXR α (Genbank accession number X52773), mouse RXR β (Genbank accession number X66224) or mouse RXR γ (Genebank accession number X66225) subtypes were expressed in yeast-E. coli multicopy 2μ expression plasmids under regulation of CUP1 promoter with the LEU2 selective marker (1).
Briefly, yeast cells are cultured in 5 mL of YPD liquid medium overnight at 30° C. The cell culture was diluted 1:20 in YPD media and further grown until cell density reached an O.D of 0.6. at OD600. The cells were pelleted by centrifugation and washed with 10 mL of TE+0.1M lithium acetate. Cells are then resuspended in 10 mL TE+0.1M lithium acetate and incubated at 30° C. for 1 hour. Cells are collected and resuspended in 0.5 mL of TE+ 0.1M lithium acetate. […]
Using the transformation method set forth above, yeast were co-transformed with a reporter gene as shown in FIG. 2 and the expression vector encoding the full-length D. melanogaster ecdysone receptor, DmEcR (FIG. 3A) in the presence or absence of the Dm EcR heterodimer partner, DmUSP (FIG. 4A). […] As the N-terminal portion of the Dm EcR receptor is reported to play a role in ligand independent transactivation, an expression vector containing an N-terminal deletion in the EcR was constructed (see FIG. 3B) and assessed in the β-galactosidase assays described above. […]

CCc1ccc(C(=O)NN(C(=O)c2cc(C)cc(C)c2)C(C)(C)C)cc1 [RH 5992, tebufenozide]
effect on reporter gene expression (in words) [1]: suppression of the levels of reporter gene expression
β-galactosidase activity [2]: 1.283
